Structures are written as SMILES. Where a SMILES comes first, the peptide text is derived from it. Bridges are numbered along the chain shown (N, C = ends). Roman numbers before positions name the chains, in order. [ ]: non-standard residue; d: D form. βAla = NCCC(=O)O

This assay relates to E. coli TG1. In words: In vivo antibacterial activity, mice infected ip with lethal amount of E. coli TG1. More on the design: species or system Balb-c mice. The following applies: E. coli TG1 1.5×10^9 CFU ip; single dose 10 mg/Kg ip 30 minutes later. The protocol:
FIG. 4. In vivo antibacterial activity of tetra-branched M33 peptide. A, Balb-c mice (20 g) were intra-peritoneally injected with a lethal amount of E. coli TG1 cells (1.5×10^9 CFU). Continuous line (Ctr) indicates mice only injected ip with bacteria and no M33. Broken line indicates mice injected ip with bacteria and a single injection of M33 peptide 10 mg/Kg 30 minutes later. B, Balb-c mice (20 g) were intra-peritoneally injected with a lethal amount of P. aeruginosa cells (ATCC 27853 1×10^7 CFU). Continuous line (Ctr) indicates mice which only received bacteria; other groups received bacteria and a single dose of M33 30 minutes later (see figure for doses of M33). C, Balb-c mice (20 g) were intra-peritoneally injected with a lethal amount of P. aeruginosa cells (multi drug resistant VR 147 clinical isolate, 1.5×10^7 CFU). Continuous line (Ctr) indicates mice which only received bacteria; broken line indicates mice which received bacteria and a single dose of M33 25 mg/Kg. D, Balb-c mice (20 g) were intra-peritoneally injected with a lethal amount of P. aeruginosa cells (ATCC 27853 1×10^7 CFU). […]
Tetra-branched M33 peptide was analysed for its antibacterial activity in mice infected with lethal amounts of bacteria. […]

Turning to `CC[C@H](C)[C@H](NC(=O)[C@H](CCCCN)NC(=O)[C@@H](N)CCCCN)C(=O)N[C@@H](CCCNC(=N)N)C(=O)N[C@H](C(=O)N[C@@H](CCCNC(=N)N)C(=O)N[C@@H](CC(C)C)C(=O)N[C@@H](CO)C(=O)N[C@@H](C)C(=O)NCCCC[C@H](NC(=O)[C@H](C)NC(=O)[C@H](CO)NC(=O)[C@H](CC(C)C)NC(=O)[C@H](CCCNC(=N)N)NC(=O)[C@@H](NC(=O)[C@H](CCCNC(=N)N)NC(=O)[C@@H](NC(=O)[C@H](CCCCN)NC(=O)[C@@H](N)CCCCN)[C@@H](C)CC)C(C)C)C(=O)NCCCC[C@H](NC(=O)[C@H](CCCCNC(=O)[C@H](C)NC(=O)[C@H](CO)NC(=O)[C@H](CC(C)C)NC(=O)[C@H](CCCNC(=N)N)NC(=O)[C@@H](NC(=O)[C@H](CCCNC(=N)N)NC(=O)[C@@H](NC(=O)[C@H](CCCCN)NC(=O)[C@@H](N)CCCCN)[C@@H](C)CC)C(C)C)NC(=O)[C@H](C)NC(=O)[C@H](CO)NC(=O)[C@H](CC(C)C)NC(=O)[C@H](CCCNC(=N)N)NC(=O)[C@@H](NC(=O)[C@H](CCCNC(=N)N)NC(=O)[C@@H](NC(=O)[C@H](CCCCN)NC(=O)[C@@H](N)CCCCN)[C@@H](C)CC)C(C)C)C(=O)NCCC(=O)O)C(C)C` [M33, KKIRVRLSA] (I: H-KKIRVRLSAKK[βAla]-OH / II: H-KKIRVRLSAK / III: H-KKIRVRLSA / IV: H-KKIRVRLSA; amide I:10-IV:C, I:11-II:C, II:10-III:C; N-terminus assumed), the “Animals protected from signs of sepsis and death (seven-day survival)” value was found to be 100%.

The record behind these values is patent US8440794B2, “Peptide sequences, their branched form and use thereof for antimicrobial applications” (Universita' Degli Studi di Siena, priority 2008, dated 2013).
